# Measured values as given in patent publication US11877996B1 (priority 2023, dated 2024).
# Entries after “also recorded” stand apart in the source; their conditions may differ.
# Experiments:
# [1] = test system: sexual-stage P. falciparum transmission to Anopheles gambiae; assay: Transmission-blocking standard membrane feeding assay (SMFA), oocysts in An. gambiae midguts; format: in vivo, Plasmodium falciparum
# Experimental: P. falciparum (NF54) was cultured in the complete RPMI-1640 containing 4% new O+ human red blood cells, 10% human AB+ serum, and 12.5 μg/ml of hypoxanthine in a candle jar at 37° C. Standard membrane feeding assays (SMFA) were used to examine the efficacy of AST. In brief, 10 ml of day-15 cultured P. falciparum containing ˜2% stage V gametocytes in a 15 ml centrifuge tube was centrifuged at 650×g for 5 min at RT. After the supernatant was removed, the cells were re-suspended in 1 ml of pre-warmed human AB− serum (37° C.), to which 1 ml of O+ hematocrit was added. […] The unfed mosquitoes were removed, and the engorged mosquitoes were maintained with 10% sugar in the insectary. Seven days post-infection, the midguts were dissected and stained with 0.1% mercury dibromofluorescein salt in PBS for 30 minutes. The number of oocysts was counted under a 10× light microscope.
# [2] = test system: Caco-2 cells
# [3] = test system: HepG2 cells
# [4] = test system: human cell lines (HEK293, THP-1, macrophage, HepG2, Caco-2)
# [5] = target: T1, PfGS-I (P. falciparum glutamine synthetase, MBP-fused) (Plasmodium falciparum, UniProt W7JM41); assay: Glutamine synthetase assay (Glutamine/Glutamate-GLO), PfGS-I; format: biochemical
# T1 sequence (W7JM41 1-544): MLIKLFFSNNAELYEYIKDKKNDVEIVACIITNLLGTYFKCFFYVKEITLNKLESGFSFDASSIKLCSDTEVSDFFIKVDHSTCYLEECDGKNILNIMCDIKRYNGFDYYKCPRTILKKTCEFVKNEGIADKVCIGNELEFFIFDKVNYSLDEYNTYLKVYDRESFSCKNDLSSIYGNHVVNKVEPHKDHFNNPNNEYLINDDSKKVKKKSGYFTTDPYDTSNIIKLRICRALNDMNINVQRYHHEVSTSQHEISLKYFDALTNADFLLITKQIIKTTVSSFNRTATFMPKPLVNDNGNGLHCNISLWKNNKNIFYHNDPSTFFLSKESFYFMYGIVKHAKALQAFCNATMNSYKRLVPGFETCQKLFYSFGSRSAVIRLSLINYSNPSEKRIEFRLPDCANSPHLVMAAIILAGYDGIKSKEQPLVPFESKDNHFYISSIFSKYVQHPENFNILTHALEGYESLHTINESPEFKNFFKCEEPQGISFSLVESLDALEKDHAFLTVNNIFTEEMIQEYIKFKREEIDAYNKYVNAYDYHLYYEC
# Experimental: (§1) The activity and inhibition profiles of purified MBP-fused PfGS-I or human GS-II (hGS-II) (BioVision Inc., Milpitas, CA, USA) in the presence or absence of AST were estimated from glutamine production using Glutamine/Glutamate-GLO™ Assay Kit (Promega, Madison, WI). The assay mixture (50 mM imidazole-HCl buffer (pH 7.0), 7.6 mM ATP, 50 mM magnesium chloride, 50 mM ammonium chloride) with or without the indicated concentration of GS enzyme was preincubated in the presence or absence of the indicated concentrations of AST for 15 min at room temperature. The reaction was initiated by addition of L-glutamate at 0.1 mM, final concentration. The reaction mixtures were incubated at 37° C. with shaking at 300 rpm for indicated time. The reactions were terminated by chilling the reaction mixture in ice water and filtered with 30 kDa Amicon Ultra centrifugal filters at 4° C. Glutamate concentrations in the filtered samples were determined using Glutamine/Glutamate-GLO™ Assay as instructed in the kit's manual, from which glutamine concentrations were estimated by subtracting the glutamate concentrations from the initial concentrations (0.1 mM). The half maximal effective concentration (EC50) of AST for PfGS-I was calculated using Sigma Plot (Systat Software, Inc., Sun Jose, CA).
# [6] = test system: THP-1 cells
# [7] = test system: human cell lines (HEK293, THP-1, macrophage, HepG2, Caco-2); assay: MTT cytotoxicity assay, five human cell lines overall
# [8] = test system: human cell lines (HEK293, THP-1, macrophage, HepG2, Caco-2); assay: Stability in culture media and human cell lysates (arsenic speciation by HPLC-ICP-MS); conditions: 100 μM AST, 48 h, five human cell lines
# [9] = target: T2, human GS-II (hGS-II) (Homo sapiens, UniProt P15104); assay: Glutamine synthetase assay (Glutamine/Glutamate-GLO), human GS-II; format: biochemical; conditions: 1 μM AST, 1 μM hGS-II, 30 min
# T2 construct: purchased BioVision Inc
# T2 sequence (P15104 whole entry): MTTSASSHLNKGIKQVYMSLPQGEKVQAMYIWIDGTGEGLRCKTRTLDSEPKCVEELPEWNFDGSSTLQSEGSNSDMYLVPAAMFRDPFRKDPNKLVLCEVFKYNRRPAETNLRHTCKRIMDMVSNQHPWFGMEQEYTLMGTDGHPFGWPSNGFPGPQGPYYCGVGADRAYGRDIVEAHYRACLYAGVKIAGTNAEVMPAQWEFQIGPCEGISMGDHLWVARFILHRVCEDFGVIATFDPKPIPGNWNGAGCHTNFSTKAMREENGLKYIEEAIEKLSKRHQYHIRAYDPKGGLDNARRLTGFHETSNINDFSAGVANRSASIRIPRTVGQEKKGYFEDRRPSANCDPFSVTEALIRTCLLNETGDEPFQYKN
# Experimental: as §1
# [10] = test system: HEK293 cells
# [11] = test system: Anopheles gambiae mosquitoes; assay: Mosquito mortality observed in SMFA (insecticidal activity); format: in vivo; conditions: 0.1 to 3 μM in blood meal
# Experimental: P. falciparum (NF54) was cultured in the complete RPMI-1640 containing 4% new O+ human red blood cells, 10% human AB+ serum, and 12.5 μg/ml of hypoxanthine in a candle jar at 37° C. Standard membrane feeding assays (SMFA) were used to examine the efficacy of AST. In brief, 10 ml of day-15 cultured P. falciparum containing ˜2% stage V gametocytes in a 15 ml centrifuge tube was centrifuged at 650×g for 5 min at RT. After the supernatant was removed, the cells were re-suspended in 1 ml of pre-warmed human AB− serum (37° C.), to which 1 ml of O+ hematocrit was added. 300 μl of the resulting infected blood were mixed with 2 μl of AST at different concentrations, yielding a final concentration of 0, 0.1, 0.3, 1, or 3 μM, which was fed a hundred 3-5-day-old female mosquitoes for 30 minutes. The unfed mosquitoes were removed, and the engorged mosquitoes were maintained with 10% sugar in the insectary. Seven days post-infection, the midguts were dissected and stained with 0.1% mercury dibromofluorescein salt in PBS for 30 minutes. The number of oocysts was counted under a 10× light microscope.
# [12] = test system: macrophage-like cells differentiated from THP-1
# [13] = test system: asexual-stage P. falciparum; assay: Antimalarial activity on the asexual stage of P. falciparum (parasitemia in infected red blood cells); format: cell-based, Plasmodium falciparum
# Experimental: 3-5-day cultured P. falciparum-infected red blood cells (iRBCs) were mixed with fresh human RBCs (AB+ type) in complete RPMI 1640 to prepare cultures with 0.5% parasitemia and 2% hematocrit. AST was dissolved in DMSO. […] The plate was incubated in a candle jar at 37° C. Approximately 48 h later, the medium was replaced with fresh medium containing the same concentration of AST. Parasitemia was recorded on day 4 post-incubation.
smiles,measurement,setting,value
"C[As](=O)(O)CC[C@H](N)C(=O)O [AST, 2-amino-4-(hydroxymethylarsinoyl)butanoate]",inhibition of P. falciparum transmission to An. gambiae compared to PT and MSO,"[1]; 3 μM, SMFA, oocysts day 7",significantly inhibits
same,inhibition of malaria transmission,"[1]; 3 μM, SMFA, oocysts day 7",completely inhibited
same,inhibition of transmission to mosquitoes,[1]; AST at 100 μM,completely inhibits
same,EC50,"[1]; SMFA, An. gambiae, oocysts day 7 post-infection, read-out: EC50 in blocking transmission of sexual-stage P. falciparum to mosquitos (50% of oocysts per mosquito vs control)",0.34 µM
same,CC50,[2],150 to 200 µM
same,CC50,[3],> 250 µM
same,permeability (total arsenic levels in cells),[4],permeable to cytomembrane
same,permeability to HepG2 cells,[4],moderately permeable
same,EC50,"[5]; 0.5 μM PfGS-I, 2 hours, read-out: EC50 for PfGS-I inhibition",0.4 µM
same,reduction of PfGS-I activity,[5]; 1 μM AST,more than 60%
same,activity of PfGS-I compared with the control without AST treatment,"[5]; 1 μM AST, 1 μM PfGS-I, 30 min",less than 40%
same,inhibition of PfGS-I activity,[5]; AST at 100 μM,completely inhibits
same,CC50,[6],> 250 µM
same,effect on viability of the tested human cell lines,"[7]; AST at 100 μM, most of the tested cell lines",little effect
same,times less cytotoxic than As(III),"[7]; ratio of LC50 values, human cell lines",> 10 times
same,arsenic species in culture media and cell lysates (stability),[8],almost exclusively AST
same,effect on hGS-II activity,[9],did not significantly reduce; also recorded: little effect
same,CC50,[10],> 250 µM
same,dead mosquitoes (insecticidal activity),[11],no dead mosquitoes were observed
same,CC50,[12],> 250 µM
same,inhibition of P. falciparum proliferation in blood,[13]; AST at 100 μM,completely inhibits
same,EC50,"[13]; infected human blood, 0.5% parasitemia, 2% hematocrit, day 4, read-out: EC50 in inhibiting asexual-stage P. falciparum (50% of parasitemia rate vs AST-free control)",13.9 µM
